System: rMSCs
Assay: Induction of nestin-positive endodermal/neuronal precursor cells from marrow stromal cells
Type: cell-based, rat
Conditions: sub-confluent rMSCs, pre-induction media supplemented with 1 mM BME, 24 hours
Description: Rat MSCs are originally cultured in alpha-Modified Eagle's Medium (alpha-MEM) supplemented with 20% FBS, 2 mM L-glutamine, 100 units per milliliter penicillin, 100 […] streptomycin and 25 nanograms per milliliter amphotericin B. For each passage the cells are plated at about 8,000 cells per square centimeter and grown to confluency. At passage 6 the cells are transferred to DMEM (pH 8.0)/20% FBS without additional supplementation, and maintained beyond passage 14. Subconfluent cultures of rat and human MSCs are maintained in DMEM/20% FBS.
Twenty-four hours before induction of partial differentiation to nestin-positive precursor cells, medium is replaced with a pre-induction medium consisting of DMEM, 20% FBS and 1 millimolar β-mercaptoethanol. The cells are then transferred to a serum free endodermal/neuronal precursor induction medium composed of DMEM and 1-10 millimolar β-mercaptoethanol. […] To effect further differentiation to pancreatic islet cell phenotype, the partially differentiated nestin-positive endodermal/neuronal precursor cells are transferred to serum-free DMEM containing 1-10 mM β-mercaptoethanol with and without 10 nanograms/ml basic fibroblast growth factor (bFGF).
rMSCs are initially maintained in sub-confluent cultures in pre-induction media supplemented with 1 mM beta-mercaptoethanol (BME) for 24 hours. […]

Compound: OCCS [BME, beta-mercaptoethanol]
- changes in morphology: no changes in morphology are evident
